Test results from ChEMBL document CHEMBL2010711, “Synthesis and comparative evaluation of 4-oxa- and 4-aza-podophyllotoxins as antiproliferative microtubule destabilizing agents” (Bioorg Med Chem Lett, 2012).
Active and inactive are the calls of the source.

How the values were obtained:
Paracentrotus lividus [1] = assay: Antimitotic activity against Paracentrotus lividus embryo assessed as cleavage alteration at 2 fold less effective threshold concentration after 2.5 to 6 hrs; type: functional, organism-based
Paracentrotus lividus [2] = assay: Microtubule destabilizing activity in Paracentrotus lividus embryo assessed as embryo spinning at 2 fold less effective threshold concentration after 15 mins to 20 hrs; type: functional, organism-based
Paracentrotus lividus [3] = assay: Antimitotic activity against Paracentrotus lividus embryo assessed as cleavage arrest at 2 fold less effective threshold concentration after 2.5 to 6 hrs; type: functional, organism-based
Paracentrotus lividus [4] = assay: Microtubule destabilizing activity in Paracentrotus lividus embryo assessed as concentration required to cause 100% embryo spinning after 15 mins to 20 hrs; type: functional
Paracentrotus lividus [5] = assay: Antimitotic activity against Paracentrotus lividus embryo assessed as concentration required to cause 100% cleavage arrest after 2.5 to 6 hrs; type: functional
Paracentrotus lividus [6] = assay: Antimitotic activity against Paracentrotus lividus embryo assessed as concentration required to cause 100% cleavage alteration after 2.5 to 6 hrs; type: functional

COc1cc([C@H]2C3=C(COC3=O)Nc3cc4c(cc32)OCO4)cc(OC)c1OC
Activity (Paracentrotus lividus [1]): inactive
Activity (Paracentrotus lividus [2]): inactive
Activity (Paracentrotus lividus [3]): inactive

COc1cc2c(c(OC)c1OC)C(c1ccccc1)C1=C(COC1=O)O2 (centres undefined)
Activity (Paracentrotus lividus [1]): inactive
EC (Paracentrotus lividus [4]): >4 µM
EC (Paracentrotus lividus [5]): >4 µM
Activity (Paracentrotus lividus [2]): inactive
EC (Paracentrotus lividus [6]): 2000 nM
Activity (Paracentrotus lividus [3]): inactive
